Results from ChEMBL document CHEMBL5316343, “Design, Synthesis, and Biological Evaluation of a Potent Dual EZH2-BRD4 Inhibitor for the Treatment of Some Solid Tumors” (J Med Chem, 2023).
Activity calls are given as the source filed them. No cut-off for these calls is given here.

Tests used:
BXPC-3 [1] = assay: Antitumor activity against human BXPC-3 cells xenografted in Balb/c nude mouse assessed as reduction in tumor growth at 30 mg/kg, ip administered daily for 30 days; type: functional, organism-based; settings: time 30.0 day
[2] = target: Bromodomain-containing protein 3 (Homo sapiens, UniProt Q15059); assay: Inhibition of BRD3-BD1/2 (unknown origin) by HTRF analysis
MDA-MB-231 [3] = assay: Induction of cell cycle arrest in human MDA-MB-231 cells assessed as accumulation of cells at G0/G1 phase at 1 to 5 uM incubated for 48 hrs by flow cytometric analysis; type: functional, cell-based; settings: dose 1-5 µM
PLC-PRF-5 = assay: Antiproliferative activity against human PLC-PRF-5 cells assessed as inhibition of cell proliferation incubated for 6 days by CCK8 assay; type: functional, cell-based; settings: time 6.0 day
[4] = MRT(0 to t) in ICR mouse at 60 mg/kg, ip measured upto 24 hrs by LC-MS/MS analysis; type: ADME, organism-based; settings: in vivo
BXPC-3 [5] = assay: Induction of apoptosis in human BXPC-3 cells assessed as necrotic cells at 1 uM incubated for 48 hrs by Annexin V-FITC/PI staining based flow cytometric analysis (reference value: 1.65 %); type: functional
BXPC-3 [6] = assay: Induction of apoptosis in human BXPC-3 cells assessed as viable cells at 2.5 uM incubated for 48 hrs by Annexin V-FITC/PI staining based flow cytometric analysis (reference value: 90.70%); type: functional; settings: read-out: Activity
MDA-MB-231 [7] = assay: Inhibition of cell proliferation in human MDA-MB-231 cells assessed as decrease in c-Myc protein level at 5 uM incubated for 48 hrs by IHC analysis; type: functional, cell-based
[8] = target: Histone-lysine N-methyltransferase EZH2 (Homo sapiens, UniProt Q15910); assay: Inhibition of EZH2 in human BXPC-3 cells assessed as increase in H3K27ac level at 5 uM by fluorescence based analysis; type: cell-based
MDA-MB-231 [9] = assay: Inhibition of cell proliferation in human MDA-MB-231 cells assessed as decrease in c-Myc mRNA level at 5 uM incubated for 48 hrs by qRT-PCR analysis; type: functional, cell-based
BXPC-3 [10] = assay: Induction of apoptosis in human BXPC-3 cells assessed as necrotic cells at 5 uM incubated for 48 hrs by Annexin V-FITC/PI staining based flow cytometric analysis (reference value: 1.65 %); type: functional
[11] = Toxicity in Balb/c nude mouse xenografted with human BXPC-3 cells assessed as effect on body weight at 30 to 60 mg/kg, ip administered daily for 30 days; type: organism-based; settings: in vivo, 720 h, dose 30-60 mg/kg, time 30 day
[12] = Tmax in ICR mouse at 60 mg/kg, ip measured upto 24 hrs by LC-MS/MS analysis; type: ADME, organism-based; settings: in vivo
A549 = assay: Antiproliferative activity against human A549 cells assessed as inhibition of cell proliferation incubated for 6 days by CCK8 assay; type: functional, cell-based; settings: time 6.0 day
BXPC-3 [13] = assay: Induction of apoptosis in human BXPC-3 cells assessed as early apoptotic cells at 1 uM incubated for 48 hrs by Annexin V-FITC/PI staining based flow cytometric analysis (reference value: 3.28 %); type: functional
T-24 = assay: Antiproliferative activity against human T24 cells assessed as inhibition of cell proliferation incubated for 6 days by CCK8 assay; type: functional, cell-based; settings: time 6.0 day
[14] = Half-life in ICR mouse at 60 mg/kg, ip measured upto 24 hrs by LC-MS/MS analysis; type: ADME, organism-based; settings: in vivo
MDA-MB-231 [15] = assay: Induction of apoptosis in human MDA-MB-231 cells assessed as viable cells at 1 uM incubated for 48 hrs by Annexin V-FITC/PI staining based flow cytometric analysis (reference value: 97.63%); type: functional; settings: read-out: Activity
BXPC-3 [16] = assay: Induction of apoptosis in human BXPC-3 cells assessed as early apoptotic cells at 2.5 uM incubated for 48 hrs by Annexin V-FITC/PI staining based flow cytometric analysis (reference value: 3.28 %); type: functional
MDA-MB-231 [17] = assay: Induction of apoptosis in human MDA-MB-231 cells assessed as necrotic cells at 5 uM incubated for 48 hrs by Annexin V-FITC/PI staining based flow cytometric analysis (reference value: 0.63%); type: functional
BXPC-3 [18] = assay: Induction of apoptosis in human BXPC-3 cells assessed as viable cells at 5 uM incubated for 48 hrs by Annexin V-FITC/PI staining based flow cytometric analysis (reference value: 90.70%); type: functional; settings: read-out: Activity
[19] = target: T1, Histone-lysine N-methyltransferase EZH1 (Homo sapiens, UniProt Q92800); assay: Inhibition of EZH1 (unknown origin) by radiometric assay
T1 sequence (Q92800 whole entry): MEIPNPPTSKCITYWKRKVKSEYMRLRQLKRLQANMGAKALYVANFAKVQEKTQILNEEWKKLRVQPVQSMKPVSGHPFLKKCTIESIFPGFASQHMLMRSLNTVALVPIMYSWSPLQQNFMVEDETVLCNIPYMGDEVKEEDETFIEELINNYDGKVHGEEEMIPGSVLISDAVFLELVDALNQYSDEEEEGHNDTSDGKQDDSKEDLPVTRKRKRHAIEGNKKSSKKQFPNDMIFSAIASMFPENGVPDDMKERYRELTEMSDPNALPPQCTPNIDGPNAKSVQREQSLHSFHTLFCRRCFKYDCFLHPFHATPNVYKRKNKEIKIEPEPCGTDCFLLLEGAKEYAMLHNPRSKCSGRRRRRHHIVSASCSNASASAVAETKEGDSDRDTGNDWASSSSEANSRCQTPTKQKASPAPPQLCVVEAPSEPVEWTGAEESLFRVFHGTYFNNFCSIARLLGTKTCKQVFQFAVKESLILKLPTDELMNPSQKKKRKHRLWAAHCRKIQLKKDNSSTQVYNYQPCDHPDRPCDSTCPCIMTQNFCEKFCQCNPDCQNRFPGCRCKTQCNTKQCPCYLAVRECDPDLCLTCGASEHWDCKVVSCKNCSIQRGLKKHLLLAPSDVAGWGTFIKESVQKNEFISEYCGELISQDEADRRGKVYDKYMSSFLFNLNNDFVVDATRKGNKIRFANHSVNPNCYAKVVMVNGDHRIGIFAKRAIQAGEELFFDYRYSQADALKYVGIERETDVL

BXPC-3 [20] = assay: Antiproliferative activity against human BXPC-3 cells assessed as inhibition of cell proliferation incubated for 6 days by CCK8 assay; type: functional, cell-based; settings: time 6.0 day
95-D = assay: Antiproliferative activity against human 95-D cells assessed as inhibition of cell proliferation incubated for 6 days by CCK8 assay; type: functional, cell-based; settings: time 6.0 day
BXPC-3 [21] = assay: Inhibition of cell proliferation in human BXPC-3 cells assessed as decrease in c-Myc protein level at 5 uM incubated for 48 hrs by IHC analysis; type: functional, cell-based
[22] = Protein binding in mouse plasma assessed as bound fraction at 2 uM incubated for 5 hrs by equilibrium based LC-MS/MS analysis; type: ADME, cell-free; settings: read-out: PPB (converted)
PANC-1 = assay: Antiproliferative activity against human PANC-1 cells assessed as inhibition of cell proliferation incubated for 6 days by CCK8 assay; type: functional, cell-based; settings: time 6.0 day
[23] = AUC(0 to infinity) in ICR mouse at 60 mg/kg, ip measured upto 24 hrs by LC-MS/MS analysis; type: ADME, organism-based; set-up: time < 24 hrs, dose 60 mg/kg, route ip; settings: in vivo

Sequence of Bromodomain-containing protein 3 (Q15059 whole entry): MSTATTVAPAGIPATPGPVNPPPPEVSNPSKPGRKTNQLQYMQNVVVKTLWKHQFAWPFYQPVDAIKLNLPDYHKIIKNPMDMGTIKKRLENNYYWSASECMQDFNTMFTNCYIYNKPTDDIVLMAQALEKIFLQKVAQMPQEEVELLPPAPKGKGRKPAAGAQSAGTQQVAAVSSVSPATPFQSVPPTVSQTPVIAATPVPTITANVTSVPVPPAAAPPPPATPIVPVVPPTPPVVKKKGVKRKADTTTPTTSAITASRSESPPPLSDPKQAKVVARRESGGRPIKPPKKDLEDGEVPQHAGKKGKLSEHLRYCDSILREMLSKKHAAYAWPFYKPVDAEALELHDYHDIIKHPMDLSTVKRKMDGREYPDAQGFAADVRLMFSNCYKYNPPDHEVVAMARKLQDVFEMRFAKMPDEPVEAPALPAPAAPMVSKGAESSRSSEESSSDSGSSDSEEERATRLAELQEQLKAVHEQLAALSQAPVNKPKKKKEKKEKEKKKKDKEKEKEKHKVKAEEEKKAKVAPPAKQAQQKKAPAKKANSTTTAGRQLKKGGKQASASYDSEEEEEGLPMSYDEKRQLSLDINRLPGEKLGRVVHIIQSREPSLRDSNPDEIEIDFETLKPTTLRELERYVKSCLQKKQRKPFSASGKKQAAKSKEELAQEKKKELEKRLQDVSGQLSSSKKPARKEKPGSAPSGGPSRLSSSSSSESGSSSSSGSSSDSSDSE
Sequence of Histone-lysine N-methyltransferase EZH2 (Q15910 whole entry, looked up): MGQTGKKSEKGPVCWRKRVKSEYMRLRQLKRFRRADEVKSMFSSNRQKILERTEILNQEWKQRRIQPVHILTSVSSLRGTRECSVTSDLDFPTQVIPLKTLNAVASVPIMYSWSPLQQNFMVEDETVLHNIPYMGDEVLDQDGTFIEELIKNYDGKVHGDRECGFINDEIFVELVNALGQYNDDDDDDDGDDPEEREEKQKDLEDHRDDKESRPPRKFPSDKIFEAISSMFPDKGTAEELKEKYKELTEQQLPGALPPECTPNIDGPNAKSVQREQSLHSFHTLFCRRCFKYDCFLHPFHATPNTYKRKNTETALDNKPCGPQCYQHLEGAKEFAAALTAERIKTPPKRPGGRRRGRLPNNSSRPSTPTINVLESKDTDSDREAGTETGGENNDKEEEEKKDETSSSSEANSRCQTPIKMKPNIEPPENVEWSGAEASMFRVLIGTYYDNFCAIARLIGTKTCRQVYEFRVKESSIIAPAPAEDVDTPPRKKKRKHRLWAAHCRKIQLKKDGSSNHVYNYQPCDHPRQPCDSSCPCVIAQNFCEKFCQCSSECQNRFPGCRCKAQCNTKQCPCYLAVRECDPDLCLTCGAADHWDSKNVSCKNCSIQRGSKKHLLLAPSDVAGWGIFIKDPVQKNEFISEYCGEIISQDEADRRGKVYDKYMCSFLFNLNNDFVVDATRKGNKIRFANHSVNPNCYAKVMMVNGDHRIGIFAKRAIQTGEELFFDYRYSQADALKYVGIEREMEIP

What does the source list for CCC(C)n1ccc2c(C(=O)NCc3c(C)cc(C)[nH]c3=O)cc(-c3cn(C)c(=O)c4[nH]ccc34)cc21 (stereo not drawn)?
Activity (BXPC-3 [1]): inactive; IC50 [2]: 32 nM; Activity (MDA-MB-231 [3]): Active; Activity (PLC-PRF-5): Active; MRT last at 24 h [4]: 2.55 h; Activity (BXPC-3 [5]): 2.94%; viability at 2.5 µM (BXPC-3 [6]): 71%; inhibition (MDA-MB-231 [7]): Active; inhibition [8]: Active; inhibition (MDA-MB-231 [9]): Active; Activity (BXPC-3 [10]): 3.35%; Activity [11]: Non-Toxic; Tmax [12]: 4.98 min; Activity (A549): Active; Activity (BXPC-3 [13]): 6.84%; Activity (T-24): Active; half-life [14]: 13.6 h; viability at 1 µM (MDA-MB-231 [15]): 94.8%; Activity (BXPC-3 [16]): 9.2%; Activity (MDA-MB-231 [17]): 1.91%; viability at 5 µM (BXPC-3 [18]): 62.1%; IC50 [19]: 2580 nM; Activity (BXPC-3 [20]): Active; Activity (95-D): Active; inhibition (BXPC-3 [21]): Active; fraction unbound at 5 h, 2 µM [22]: 0.009; Activity (PANC-1): Active; AUC(0-inf) [23]: 2000 ng·h/mL
